Measured values published in patent US20090074766A1, “Methods of inhibiting HIV-2 infection” (priority 2007, published 2009).
Like-named read-outs stand apart in the source and are kept apart here.

What was measured:
Design in all cases: CI90: unit not given beside the values
[1] = test system: reporter viruses pseudotyped with HIV-1SF162 envelope; format: cell-based; details: for IC50 / IC90: 1st inhibitor alone, HIV-1 envelope SF162; for CI90 / CI50: envelope SF162
Excerpt: A self-inactivating (SIN) vector was derived from the pNL4-3ΔEnv-luciferase vector (Dragic et al. 1996) by deleting 507 basepairs in the U3 region of the 3′ long terminal repeat (LTR) so as to remove the TATA box and transcription factor binding sites. The human cytomegalovirus promoter was inserted upstream of the luciferase (luc) gene to enable expression of luciferase following integration.
Reporter viruses pseudotyped with HIV-1JR-FL or HIV-1SF162 envelopes were generated by cotransfection of 293T cells with the SIN vector and the appropriate pcDNA env-expressing vector as previously described (Dragic et al. 1996). […] Cultures were incubated for 72 h at 37° C. in DMEM containing 10% fetal bovine serum, 1 mg/mL puromycin, 0.3 mg/mL geneticin, antibiotics, and 0.5% DMSO. Luciferase activity (relative light units or RLU) was measured using BrightGlo reagent (Promega, Madison, Wis.) according to the manufacturer's instructions. Percent inhibition was calculated as: (1−RLU in the presence of inhibitor/RLU in the absence of inhibitor)×100.
Experimental design and data analysis were based on the combination index (CI) method (Chou et al. 1991; Chou et al. 1984). Compounds were tested individually and in combination at a fixed molar ratio over a range of serial dilutions. […] The mutually exclusive CI formula was used for combinations of CCR5 inhibitors, while the mutually non-exclusive formula was utilized for combinations of inhibitors to distinct targets (Chou et al. 1991). Each test was conducted 4-12 times. Synergy, additivity and antagonism are indicated by CI<1, CI=1 and CI>1, respectively.

[2] = molecular target: HIV-1JR-FL envelope-mediated membrane fusion (HeLa-EnvJRFL and CEM NKR-CCR5 cells) (Homo sapiens, UniProt P51681); assay: cell-based; details: for Mean Dose Reduction (2D7) / Mean Dose Reduction (Cpd in combination): 2D7 in combination with the labelled inhibitor, 1:1 molar ratio
Chain of HIV-1JR-FL envelope-mediated membrane fusion (HeLa-EnvJRFL and CEM NKR-CCR5 cells) (Homo sapiens, UniProt P51681) (P51681 whole entry, the tested form may be a part): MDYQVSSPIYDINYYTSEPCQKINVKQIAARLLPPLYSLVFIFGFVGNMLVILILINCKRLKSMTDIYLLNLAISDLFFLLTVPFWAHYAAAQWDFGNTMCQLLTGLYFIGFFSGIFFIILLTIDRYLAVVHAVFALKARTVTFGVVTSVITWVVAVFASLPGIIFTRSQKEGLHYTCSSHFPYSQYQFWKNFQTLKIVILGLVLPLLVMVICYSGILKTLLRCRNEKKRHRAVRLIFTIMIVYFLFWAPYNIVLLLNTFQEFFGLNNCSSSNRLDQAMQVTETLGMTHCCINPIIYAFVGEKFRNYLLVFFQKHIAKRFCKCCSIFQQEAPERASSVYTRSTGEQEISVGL
Protocol: (§1) The HIV-1 RET assay has been described in detail previously (Litwin et al., 1996). Briefly, fluorescein octadecyl ester (F18; Molecular Probes, Eugene, Oreg.; 5 mg/ml in ethanol), was diluted 1:800 in DMEM labeling medium (DMEM; Invitrogen, Carlsbad, Calif.) with 10% fetal bovine serum (FBS; HyClone, Logan, Utah) and adjusted to an A506 of 0.34±10%. Octadecyl rhodamine B chloride (R18; Molecular Probes; 10 mg/ml in ethanol) was diluted 1:2050 in labeling medium and adjusted to an A565 of 0.52±10%. Both dyes were further diluted 2-fold by addition to cells in T75-cm^2 flasks. HeLa-EnvJRFL and CEM NKR-CCR5 cells were incubated overnight in F18- and R18-containing culture medium, respectively. The following day, medium from HeLa-EnvJRFL cells was removed and 10 ml of 0.5 mM EDTA was added and incubated at 37° C. for 5 min. EDTA was removed and the flask was returned to the incubator for another 5 min followed by striking of the flask to dislodge cells. […] Suspension CEM NKR-CCR5 cells were added directly to a separate 50-ml conical centrifuge tube. Both cell lines were centrifuged at 300×g for 5 min. The supernatant was discarded and cells were resuspended in 10 ml of PBS-/15% FBS. The centrifugation/wash step was repeated twice, after which the cells were counted and concentrations adjusted to 1.5×10^6 cells/ml. Ten μl of each cell type (15,000 cells) were seeded into wells of a 384-well plate. Inhibitor compounds were added immediately thereafter to bring the final well volume to 40 μl, and the plates were incubated for 4 h at 37° C. Compounds were tested individually and in combination at a fixed molar ratio or mass ratio over a range of serial dilutions. The plates were then read on a fluorescence plate reader (Victor^2, Perkin Elmer, Boston, Mass.) using the excitation/emission filter combinations shown in Table 6.
(§2) The “% RET” was calculated according to the following formula after subtraction of background (blank) readings: […]
(§3) The “% Inhibition” was calculated according to the following formula: […]
(§4) Fifty percent inhibition (IC50) values were determined by fitting the inhibition data with a non-linear, four-parameter, variable slope equation (GraphPad Prism, 4.02; GraphPad Software, San Diego, Calif.). Upper and lower inhibition values were constrained to 100% and 0%, respectively for curve fitting.
(§5) For testing, small molecule compounds were solubilized in dimethylsulfoxide (DMSO) to 10 mM and then diluted in DMSO to 200× the final concentration to be utilized in the antiviral assay. Serial dilutions of small molecules were conducted in DMSO. Subsequent dilutions were conducted in medium to achieve a final DMSO concentration in the assay of 0.5%. Peptides and mAbs were diluted in PBS in the absence of DMSO.
(§6) HeLa cells were engineered to express HIV-1 gp120/gp41 from the macrophage-tropic primary isolate JRFL as described (HeLa-EnvJRFL; Litwin et al., 1996). Briefly, the HIV-1LAI Env gene was excised from the plasmid pMA243 (Dragic et al., 1992) and the HIV-1JRFL Env gene was inserted. The HIV-1JRFL Env gene was amplified from the plasmid pUCFL112-1 (Koyanagi et al., 1987). The resulting plasmid, designated JR-FL-pMA243, was sequenced by standard methods and transfected into HeLa cells using lipofectin (Gibco BRL/Invitrogen, Carlsbad, Calif.). HeLa-EnvJRFL transfectants were selected in methotrexate (Sigma, St. Louis, Mo.) and cloned twice by limiting dilution. The transduced human T cell leukemia line CEM NKR-CCR5 cells were obtained from the NIH AIDS Research and Reference Program (Cat. No. 458).
(§7) The HIV-1 RET assay has been described in detail previously (Litwin et al., 1996). Briefly, fluorescein octadecyl ester (F18; Molecular Probes, Eugene, Oreg.; 5 mg/ml in ethanol), was diluted 1:800 in DMEM labeling medium (DMEM; Invitrogen, Carlsbad, Calif.) with 10% fetal bovine serum (FBS; HyClone, Logan, Utah) and adjusted to an A506 of 0.34±10%.

[3] = test system: HIV-1JR-FL envelope-mediated membrane fusion (HeLa-EnvJRFL and CEM NKR-CCR5 cells); assay: cell-based
Protocol: as §1, §2, §3, §4, §5, §6, §7

[4] = SCH-D (Drug 1) with TAK-779 (Drug 2), molar ratio 1:1
[5] = inhibitor tested individually, experiment depicted in FIG. 11B
[6] = PRO 140 in combination with the labelled inhibitor, 1:1 molar ratio
[7] = labelled 1st inhibitor with 2nd inhibitor UK-427,857, equimolar
[8] = molar ratio PRO 140 to labelled inhibitor 1:5
[9] = molar ratio PRO 140 to labelled inhibitor 5:1
[10] = inhibitor tested individually, experiment depicted in FIG. 11A
[11] = labelled 1st inhibitor with 2nd inhibitor PRO 140, equimolar (1:10 PRO 140 to zidovudine or nevirapine)
[12] = labelled 1st inhibitor with 2nd inhibitor PRO 140, equimolar, mean ± SD of 4-12 assays

## COC[C@@H](c1ccc(C(F)(F)F)cc1)N1CCN(C2(C)CCN(C(=O)c3c(C)ncnc3C)CC2)C[C@@H]1C [SCH-D, 1-[(4,6-dimethyl-5-pyrimidinyl)carbonyl]-4-[4-[2-methoxy-1(R)-4-(trifluoromethyl)phenyl]ethyl-3(S)-methyl-1-piperazinyl]-4-methylpiperidine]
[1]; read-out: IC50
  IC50: 0.34 nM
[1]; read-out: IC90
  IC90: 14 nM
[2]
  Mean Dose Reduction (2D7): 3.25 ± 0.56
  Mean Dose Reduction (Cpd in combination): 4.04 ± 0.78
[2]; [4]
  Mean CI ± stdev: 1.12±0.32
  Mean DR (Drug 1): 1.48 ± 0.96
[2]; SCH-D and UK-427,857 1:1, experiment depicted in FIG. 11B
  CI90: 0.73
[2]; [5]
  IC90: 34 nM
[2]; read-out: IC90 of the combination, 1:1 fixed molar ratio combination of SCH-D and UK-427,857, FIG. 11B
  IC90: 31 nM
[3]; 1st inhibitor alone (Table 13)
  IC50: 3.2 nM
  IC90: 16 nM
[3]; [6]
  Mean Dose Reduction (Cpd in combination): 3.90 ± 0.71
  Mean Dose Reduction (PRO 140): 4.21 ± 0.96
[3]; labelled 1st inhibitor with 2nd inhibitor TAK-779, equimolar
  CI50: 1.3 ± 0.18
[3]; [7]
  CI50: 0.86 ± 0.03
  CI90: 0.75 ± 0.02
[3]; [8]
  Mean Dose Reduction (Cpd. in combination): 1.73 ± 0.19
  Mean Dose Reduction (PRO 140): 9.95 ± 2.03
[3]; [9]
  Mean Dose Reduction (Cpd. in combination): 8.44 ± 1.27
  Mean Dose Reduction (PRO 140): 1.92 ± 0.40

## Cc1nnc(C(C)C)n1C1CC2CCC(C1)N2CC[C@H](NC(=O)C1CCC(F)(F)CC1)c1ccccc1 (some centres unmarked) [UK-427,857]
[1]
  IC50: 0.87 nM
  IC90: 13 nM
[1]; labelled 1st inhibitor with 2nd inhibitor SCH-D
  CI90: 0.86 ± 0.28
[2]; [10]
  IC90: 21 nM
[2]; [5]
  IC90: 59 nM
[2]; read-out: IC90 of the combination, 1:1 fixed molar ratio combination of PRO 140 and UK-427,857, FIG. 11A
  IC90: 4.6 nM
[3]; [6]
  Mean Dose Reduction (Cpd in combination): 2.98 ± 0.65
  Mean Dose Reduction (PRO 140): 4.16 ± 0.41
[3]; [8]
  Mean Dose Reduction (Cpd. in combination): 1.58 ± 0.17
  Mean Dose Reduction (PRO 140): 11.31 ± 2.14
[3]; [9]
  Mean Dose Reduction (Cpd. in combination): 7.25 ± 2.19
  Mean Dose Reduction (PRO 140): 2.00 ± 0.35

## COc1ccnc2[nH]cc(C(=O)C(=O)N3CCN(C(=O)c4ccccc4)C[C@H]3C)c12 [BMS-378806, (R)-N-(benzoyl)-3-methyl-N′-[(4-methoxy-7-azaindol-3-yl)-oxoacetyl]-piperazine]
[1]; [11]
  CI50: 1.1 ± 0.28
  CI90: 0.82 ± 0.21
[3]; [6]
  Mean CI (Combination Index at IC50): 1.21±0.21
  Mean Dose Reduction (Cpd in combination): 2.85 ± 0.76
  Mean Dose Reduction (PRO 140): 1.64 ± 0.30
[3]; PRO 140 in combination with the labelled inhibitor, molar ratio PRO 140 to inhibitor 1:5
  Mean Combination Index (at IC50): 1.55 ± 0.24
[3]; PRO 140 in combination with the labelled inhibitor, molar ratio PRO 140 to inhibitor 5:1
  Mean Combination Index (at IC50): 1.12 ± 0.10
[3]; [12]
  CI90: 1.1 ± 0.22
[3]; [8]
  Mean Dose Reduction (Cpd. in combination): 1.07 ± 0.31
  Mean Dose Reduction (PRO 140): 3.64 ± 0.73
[3]; [9]
  Mean Dose Reduction (Cpd. in combination): 8.88 ± 4.16
  Mean Dose Reduction (PRO 140): 1.14 ± 0.06

B1: PRO 140: humanized IgG4,κ anti-CCR5 monoclonal antibody, humanized version of murine mAb PA14 (antibody, chains of the INN, looked up, V domains shown)
VH: EVQLVESGGGLVKPGGSLRLSCAASGYTFSNYWIGWVRQAPGKGLEWIGDIYPGGNYIRNNEKFKDKTTLSADTSKNTAYLQMNSLKTEDTAVYYCGSSFGSNYVFAWFTYWGQGTLVTVSS
VL: DIVMTQSPLSLPVTPGEPASISCRSSQRLLSSYGHTYLHWYLQKPGQSPQLLIYEVSNRFSGVPDRFSGSGSGTDFTLKISRVEAEDVGVYYCSQSTHVPLTFGQGTKVEIK
[1]; read-out: IC50
  IC50: 1.3 nM
[1]; read-out: IC90
  IC90: 20 nM
[1]; [11]
  CI50: 1.0 ± 0.27
  CI90: 0.86 ± 0.33
[2]
  Mean Dose Reduction (2D7): 2.54 ± 0.13
  Mean Dose Reduction (Cpd in combination): 1.87 ± 0.07
[2]; [10]
  IC50: 2.9 nM
  IC90: 11 nM
[2]; [12]
  CI50: 0.96
